The assay deals with T1, human FPTase (Homo sapiens, UniProt P49354+P49356).
T1 construct: made in house
The assay can be described thus: In vitro inhibition of human farnesyl-protein transferase ([3H]-FPP incorporation into Ras-CVIM). The class given is biochemical. The note with it: 100 nM Ras-CVIM, 30 min, read-out: IC50, inhibitory activity against human FPTase.

One may read the IC50 as the midpoint of a concentration-inhibition curve.

With `CC(=O)O[C@H]1CC[C@]2(C)[C@H]3Cc4c(O)cc5c(c4O[C@@]3(C)CC[C@H]2C1(C)C)COC5=O` [Compound II], the IC50 was < 20 µM.
The value for `COC1OC(OC)c2c1cc(O)c1c2O[C@@]2(C)CC[C@H]3C(C)(C)[C@@H](OC(C)=O)CC[C@]3(C)[C@H]2C1` (some centres unmarked) [Compound I] was < 20 µM.

The record behind these values is patent publication US5789438A, “Inhibitors of farnesyl-protein transferase” (Merck & Co., Inc., priority 1997, dated 1998).
